Source: ChEMBL document CHEMBL1138623, “Synthesis and evaluation of aryl-substituted diarylpropionitriles, selective ligands for estrogen receptor beta, as positron-emission tomographic imaging agents” (Bioorg Med Chem, 2009)

Species on record: Homo sapiens
Experiment: Selectivity ratio of relative binding affinity for full-length human estrogen receptor beta to ratio of relative binding affinity for full length human estrogen receptor alpha

SMILES | RBA [%]
N#CC(Cc1ccc(O)c(CCF)c1)c1ccc(O)cc1 (stereo unspecified) | 58
Cc1cc(CC(C#N)c2ccc(O)cc2)ccc1O (stereo unspecified) | 139
N#CC(Cc1ccc(O)c(O)c1)c1ccc(O)cc1 (stereo unspecified) | 106
N#CC(Cc1ccc(O)c(CCCF)c1)c1ccc(O)cc1 (stereo unspecified) | 45
N#CC(Cc1ccc(O)c(CO)c1)c1ccc(O)cc1 (stereo unspecified) | 19

The next lines start with the values.

RBA [%] | SMILES
21 | N#CC(c1ccc(O)cc1)C(CF)c1ccc(O)cc1 (stereo unspecified)
272 | N#CC(Cc1ccc(O)c(F)c1)c1ccc(O)cc1 (stereo unspecified)
112 | N#CC(Cc1ccc(O)c(Cl)c1)c1ccc(O)cc1 (stereo unspecified)
11 | CC(c1ccc(O)cc1)C(C#N)c1ccc(O)cc1 (stereo unspecified)
140 | N#CC(Cc1ccc(O)c(I)c1)c1ccc(O)cc1 (stereo unspecified)
108 | N#CC(Cc1ccc(O)c(Br)c1)c1ccc(O)cc1 (stereo unspecified)
